What was measured:
ER [1] = details: ligand plus estrogen receptor plus Brg1 complex
Method: To reconstitute specific chromatin remodeling in vitro, one would co-incubate wild type or mutant ERE-containing nucleosomes with E2/ER or ICI/ER as in D2.2a. Equimolar Brg1, obtainable from Jena Biosciences (Dortmund, Germany), would be added and measurement would be made of the FRET loss that is specific to wt ERE-containing nucleosomes in a buffer of 12 mM HEPES, pH 7.9, 60 mM KCl, 15% glycerol, catalase, 10 mM DTT, 2 mM MgCl2, 4 mM ATP, 0.4% (w/v) glucose, 0.1 mg/ml glucose oxidase, and 0.02 mg/ml catalase. In the absence of measurable FRET loss, Flag-tagged BAF57, BAF155 and BAF170 could 1 be added in a 2:1 ratio, relative to Brg1, in keeping with observations in publication 69. Ligand-dependent measurement of FRET loss would be monitored.
The remodeling reaction is expected to be ATP-dependent. This would be tested by ATP deletion in relation to incubation conditions that had decreased FRET. Also, initial validation of reagents would be effected done through measurement of micrococcal nuclease sensitivity of the mononucleosome bound DNA.

ER [2] = details: recombinant protein system, equimolar estrogen, ICI, tamoxifen, cholesterol
Description: Use of a recombinant protein system would be preferred to use of cell extracts in this context. A recombinant protein system would facilitate modulation of component stoichiometries.

Sequence of ER (P03372 whole entry): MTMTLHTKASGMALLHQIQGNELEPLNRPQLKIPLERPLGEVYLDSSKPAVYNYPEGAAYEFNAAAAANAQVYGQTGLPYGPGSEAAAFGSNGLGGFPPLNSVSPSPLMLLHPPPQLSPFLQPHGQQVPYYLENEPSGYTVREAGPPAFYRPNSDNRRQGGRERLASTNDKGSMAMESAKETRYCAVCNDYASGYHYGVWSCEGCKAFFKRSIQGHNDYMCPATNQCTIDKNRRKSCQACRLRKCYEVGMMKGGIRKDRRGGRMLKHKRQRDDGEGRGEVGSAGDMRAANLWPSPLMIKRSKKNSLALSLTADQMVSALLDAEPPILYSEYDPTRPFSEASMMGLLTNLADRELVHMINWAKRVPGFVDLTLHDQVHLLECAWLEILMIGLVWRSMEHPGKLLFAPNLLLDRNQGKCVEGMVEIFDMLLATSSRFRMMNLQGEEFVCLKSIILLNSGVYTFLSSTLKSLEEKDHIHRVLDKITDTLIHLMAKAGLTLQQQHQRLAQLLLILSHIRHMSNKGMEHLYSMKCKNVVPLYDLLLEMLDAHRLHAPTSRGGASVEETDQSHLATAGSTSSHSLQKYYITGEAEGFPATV

Compound | loss of FRET signal (ER [1]) | distribution of ligand into sorted pools (ER [2])
C[C@]12CC[C@@H]3c4ccc(O)cc4C[C@@H](CCCCCCCCC[S+]([O-])CCCC(F)(F)C(F)(F)F)[C@H]3[C@@H]1CC[C@@H]2O (stereo partly shown) [ICI, ICI182780] | negative controls | 
CC(C)CCC[C@@H](C)[C@H]1CC[C@H]2[C@@H]3CC=C4C[C@@H](O)CC[C@]4(C)[C@H]3CC[C@]12C [cholesterol] | negative controls | would not be carried forward through the sort
Vitamin D3 | negative controls | 

Reference: patent publication US20090062130A1, “NUCLEOSOME-BASED BIOSENSOR” (UNIVERSITY OF PITTSBURGH - OF THE COMMONWEALTH SYSTEM OF …, priority 2006, published 2009)
